Values quoted from earlier work in patent US20130309220A1, “COMPOSITIONS FOR TREATING MICROBIAL INFECTIONS” (priority 2012, published 2013).

CCC(=O)O[C@]1(C(=O)SCF)[C@H](C)C[C@H]2[C@@H]3C[C@H](F)C4=CC(=O)C=C[C@]4(C)[C@@]3(F)[C@@H](O)C[C@@]21C [Fluticasone propionate, S-(fluromethyl)6α,9-difluoro-11β-17-dihydroxy-16α-methyl-3-oxoandrosta-1,4-diene-17β-carbothioate,17-propionate]
solubility in 95% ethanol (95% ethanol): slightly soluble | solubility in dimethyl sulfoxide (dimethyl sulfoxide): freely soluble | solubility in dimethylformamide (dimethylformamide): freely soluble | solubility in methanol (methanol): slightly soluble | solubility in water (water): practically insoluble
